According to patent US5023256A, “Pharmacologically active aminoimidazopyridines” (Dompe Farmaceutici S.p.A., priority 1989, dated 1991):

Key:
[1] = tested on: sleeping time induced by pentobarbital; experiment: Effect on the Sleeping Time Induced by Pentobarbital; format: in vivo, male mice Swiss-Nos; details: mouse, 25 mg/kg i.p. 30 minutes before 40 mg/kg i.p. sodium pentobarbital; increase vs control group
Experimental: Effect on the Sleeping Time Induced by Pentobarbital The tests were carried out on male mice Swiss-Nos (Nossan, Correzzana, Milano) weighing 20-24 g, on an empty stomach for 18 hrs, according to the method described by R. Turner (Screening Methods in Pharmacology, Acad. Press, pg 70, 1965). […] The narcosis start was considered from the moment when the animal, lying on its back, lost its straightening reflex. The narcosis end was considered from the moment when the animal recovered such reflex. The carrier or the compounds under examination were administered by intraperitoneal route at the dose 25 mg/kg, 30 minutes before the pentobarbital administration. The resulting data are expressed as sleeping time increase percent in the treated animal group in comparison to the control animal group.

[2] = tested on: histamine-induced mortality; experiment: Effect on the Mortality Induced by Histamine; format: in vivo, male albino guinea pigs (Dunkin-Hartley); details: Cavia porcellus, po; guinea pig, p.o. 60 minutes before 1,25 mg/kg i.v. histamine dihydrochloride; amount inhibiting 50% of mortality
Experimental: Effect on the Mortality Induced by Histamine
The method described by Romer D. et al. (Med. Welt, 17, 791, 1966) was followed and the tests were carried out on male albino guinea pigs (Dunkin-Hartley), weighing 350-450 g, which were kept in cages with a grid floor, on an empty stomach for 24 hrs with water ad libitum.
The compounds under examination were dissolved in 0.5% carboxy methylcellulose and orally administered to the animals 60 minutes before that the same animals were intravenously treated with 1,25 mg/kg of histamine dihydrochloride dissolved in saline solution. In the control animals, treated with carboxymethyl cellulose, the histamine dihydrochloride solution, intravenously administered, induced a 100% mortality.
It was evaluated ED50 which corresponds to the amount of the compound able to inhibit 50% of the mortality induced by histamine: the estimation of ED50 was carried out applying the `probit` method (Finney D. J., Statistical methods in biological assay, pg 512, 1957).

[3] = Evaluation of the Lethal Dose50 (LD50), acute toxicity; details: in vivo, ip; mouse, 14 days observation, probit method
Experimental: Evaluation of the Lethal Dose50 (LD50)
The tests were carried out on Swiss Nos (Nossan; Correzzana, Milano) mice weighing 18-20 g each. The animals, divided into groups of 10 animals each (5M+5F), were on an empty stomach for 18 hrs, with water ad libitum, and kept in cages with a grid floor. The compounds (I) were dissolved in water or suspended in 0.5% carboxymethylcellulose and intraperitoneally administered to the animals (10 ml/kg). The number of mice which died within the following 6 hours was recorded. Upon the expiry of the sixth hour, the animals were allowed to eat up to the end of the experimentation which lasted 14 days. During this period all the toxic symptoms and the mortality occurring were noted.
The animals which died during the test period and those which were sacrificed at the end of the same, underwent autopsy for a macroscopic examination of their main organs. The experimental data were statistically compared with the X^2 method and LD50 was extrapolated by the `probit` method.

Row | SMILES | Increase of sleeping time induced by pentobarbital [1] [%] | ED50 [2] [mg/kg] | LD50 at 336 h [3] [mg/kg]
1 | CN1CCN(c2nc3cccnc3n2Cc2ccccc2)CC1.O=C(O)/C=C/C(=O)O [Example 1, 3-Benzyl-2-(4-methylpiperazin-1-yl)-3H-imidazo[4,5-b]pyridine fumarate] | 183 | 0.033 | > 100
2 | CN(C)CCNc1nc2cccnc2n1Cc1ccccc1.Cl.Cl [Example 2, 3-Benzyl-2-(2-dimethylaminoethylamino)-3H-imidazo[4,5-b]pyridine dihydrochloride] | 76 | – | > 100
3 | CC(C)(C)c1ccc(C(O)CCCN2CCC(C(O)(c3ccccc3)c3ccccc3)CC2)cc1 (stereo not drawn) [Terfenadine, reference compound] | 44 | – | –
